# From patent US5616684A, “Cyclic peptides and use thereof” (priority 1991, dated 1997)
# Where two headings read alike, the source gives them in different places.
# Conditions: amide bond
structure (smiles),measurement,setting,value
CC(C)C[C@@H]1NC(=O)[C@@H](CC(C)C)NC(=O)[C@H](CC(=O)O)NC(=O)[C@H](CCCNC(=O)c2ccccc2)NC(=O)[C@@H](CC(=O)O)NC(=O)[C@@H](Cc2c[nH]c3ccccc23)NC1=O [cyclo[-D-Asp-Orn(COPh)-Asp-D-Leu-Leu-D-Trp-]],"ring closure, yield of all isomers","from CC(C)C[C@H](NC(=O)[C@@H](CC(C)C)NC(=O)[C@H](CC(=O)OCc1ccccc1)NC(=O)[C@H](CCCNC(=O)c1ccccc1)NC(=O)OC(C)(C)C)C(=O)N[C@H](Cc1c[nH]c2ccccc12)C(=O)N[C@H](CC(=O)OCc1ccccc1)C(=O)O, HONB/DCC (active ester), TEA, DMF, 5.03 mM, 4 steps",48.1%
CC(C)C[C@@H]1NC(=O)[C@@H](CC(C)C)NC(=O)[C@@H](CC(=O)O)NC(=O)[C@H](C)NC(=O)[C@@H](CC(=O)O)NC(=O)[C@@H](Cc2c[nH]c3ccccc23)NC1=O [cyclo[-D-Asp-Ala-D-Asp-D-Leu-Leu-D-Trp-]],"ring closure, yield of all isomers","from CC(C)C[C@H](NC(=O)[C@@H](CC(C)C)NC(=O)[C@@H](CC(=O)OCc1ccccc1)NC(=O)[C@H](C)NC(=O)[C@@H](CC(=O)OCc1ccccc1)NC(=O)[C@@H](Cc1c[nH]c2ccccc12)NC(=O)OC(C)(C)C)C(=O)O, HONB/DCC (active ester), TEA, DMF, 5.0 mM, 4 steps",15.3%
CC(C)C[C@@H]1NC(=O)[C@@H](CC(C)C)NC(=O)[C@@H](CCC(=O)O)NC(=O)[C@H](C)NC(=O)[C@@H](CC(=O)O)NC(=O)[C@@H](Cc2c[nH]c3ccccc23)NC1=O [cyclo[-D-Asp-Ala-D-Glu-D-Leu-Leu-D-Trp-]],"ring closure, yield of all isomers","from CC(C)C[C@H](NC(=O)[C@@H](CC(C)C)NC(=O)[C@@H](CCC(=O)OCc1ccccc1)NC(=O)[C@H](C)NC(=O)[C@@H](CC(=O)OCc1ccccc1)NC(=O)[C@@H](Cc1c[nH]c2ccccc12)NC(=O)OC(C)(C)C)C(=O)O, HONB/DCC (active ester), TEA, DMF, 4.97 mM, 16.0 h, 4 steps",10.8%
CC(C)C[C@@H]1NC(=O)[C@@H](c2cccs2)NC(=O)[C@H](CC(=O)O)NC(=O)[C@H](Cc2c[nH]c3ccccc23)NC(=O)[C@@H](CC(=O)O)NC(=O)[C@@H](Cc2c[nH]c3ccccc23)NC1=O [cyclo[-D-Asp-Trp-Asp-D-Thg(2)-Leu-D-Trp-]],"ring closure, yield of all isomers","from CC(C)C[C@H](NC(=O)[C@H](NC(=O)OC(C)(C)C)c1cccs1)C(=O)N[C@H](Cc1c[nH]c2ccccc12)C(=O)N[C@H](CC(=O)OCc1ccccc1)C(=O)N[C@@H](Cc1c[nH]c2ccccc12)C(=O)N[C@@H](CC(=O)OCc1ccccc1)C(=O)O, HONB/DCC (active ester), TEA, DMF, 5.06 mM, 4 steps",4.6%
CC(C)C[C@@H]1NC(=O)[C@@H](CC(C)C)NC(=O)[C@H](CC(=O)OCc2ccccc2)NC(=O)[C@@H]2C[C@@H](OCc3ccccc3)CN2C(=O)[C@@H](CC(=O)OCc2ccccc2)NC(=O)[C@@H](Cc2c[nH]c3ccccc23)NC1=O [cyclo[-D-Asp(OBzl)-Hyp(Bzl)-Asp(OBzl)-D-Leu-Leu-D-Trp-]],"ring closure, yield of all isomers","from CC(C)C[C@H](NC(=O)[C@@H](CC(C)C)NC(=O)[C@H](CC(=O)OCc1ccccc1)NC(=O)[C@@H]1C[C@@H](OCc2ccccc2)CN1C(=O)[C@@H](CC(=O)OCc1ccccc1)NC(=O)[C@@H](Cc1c[nH]c2ccccc12)NC(=O)OC(C)(C)C)C(=O)O, HONB/DCC (active ester), then TEA, DMF, 9.5 mM, 16.0 h, 3 steps",82.6%
CC(C)C[C@@H]1NC(=O)[C@@H](CC(C)C)NC(=O)[C@H](CC(=O)O)NC(=O)[C@H](CC(=O)NCc2ccccc2)NC(=O)[C@@H](CC(=O)O)NC(=O)[C@@H](Cc2c[nH]c3ccccc23)NC1=O [cyclo[-D-Asp-Asn(CH2 Ph)-Asp-D-Leu-Leu-D-Trp-]],"ring closure, yield of all isomers","from CC(C)C[C@H](NC(=O)[C@@H](CC(C)C)NC(=O)[C@H](CC(=O)OCc1ccccc1)NC(=O)[C@H](CC(=O)NCc1ccccc1)NC(=O)[C@@H](CC(=O)OCc1ccccc1)NC(=O)[C@@H](Cc1c[nH]c2ccccc12)NC(=O)OC(C)(C)C)C(=O)O, HONB/DCC (ONB active ester), TEA, DMF, 3.46 mM, 16.0 h, 4 steps",23.8%
CC(C)C[C@@H]1NC(=O)[C@@H](CC(C)C)NC(=O)[C@H](CC(=O)O)NC(=O)[C@H](Cc2c[nH]c3ccccc23)NC(=O)[C@@H](CC(=O)O)NC(=O)[C@@H](Cc2c[nH]c3ccccc23)NC1=O [cyclo[-D-Asp-Trp-Asp-D-Leu-Leu-D-Trp-]],"ring closure, yield of all isomers","from CC(C)C[C@H](NC(=O)[C@@H](CC(C)C)NC(=O)[C@H](CC(=O)OCc1ccccc1)NC(=O)[C@H](Cc1c[nH]c2ccccc12)NC(=O)[C@@H](CC(=O)OCc1ccccc1)NC(=O)[C@@H](Cc1c[nH]c2ccccc12)NC(=O)OC(C)(C)C)C(=O)O, HONB/DCC (ONB active ester), TEA, DMF, 4.97 mM, 16.0 h, 4 steps",52.9%
CC(C)C[C@@H]1NC(=O)[C@@H](CC(C)C)NC(=O)[C@H](CC(=O)O)NC(=O)[C@@H]2CCCN2C(=O)[C@@H](CC(=O)O)NC(=O)[C@@H](Cc2c[nH]c3ccccc23)NC1=O [cyclo[-D-Asp-Pro-Asp-D-Leu-Leu-D-Trp-]],"ring closure, yield of all isomers","from CC(C)C[C@H](NC(=O)[C@@H](CC(C)C)NC(=O)[C@H](CC(=O)OCc1ccccc1)NC(=O)[C@@H]1CCCN1C(=O)[C@@H](CC(=O)OCc1ccccc1)NC(=O)[C@@H](Cc1c[nH]c2ccccc12)NC(=O)OC(C)(C)C)C(=O)O, HONB/DCC (ONB active ester), TEA, DMF, 5.1 mM, 16.0 h, 4 steps",47.4%
CC(C)C[C@@H]1NC(=O)[C@@H](CC(C)C)NC(=O)[C@H](CC(=O)O)NC(=O)[C@H](CC(=O)NCCc2c[nH]c3ccccc23)NC(=O)[C@@H](CC(=O)O)NC(=O)[C@@H](Cc2c[nH]c3ccccc23)NC1=O [cyclo[-D-Asp-Asn(CH2 CH2 -Ind)-Asp-D-Leu-Leu-D-Trp-]],"ring closure, yield of all isomers","from CC(C)C[C@H](NC(=O)[C@@H](CC(C)C)NC(=O)[C@H](CC(=O)OCc1ccccc1)NC(=O)[C@H](CC(=O)NCCc1c[nH]c2ccccc12)NC(=O)[C@@H](CC(=O)OCc1ccccc1)NC(=O)[C@@H](Cc1c[nH]c2ccccc12)NC(=O)OC(C)(C)C)C(=O)O, 4 steps",19.4%
CC(C)C[C@@H]1NC(=O)[C@@H](CC(C)(C)C)NC(=O)[C@H](CC(=O)O)NC(=O)[C@H](Cc2c[nH]c3ccccc23)NC(=O)[C@@H](CC(=O)O)NC(=O)[C@@H](Cc2c[nH]c3ccccc23)NC1=O [cyclo[-D-Asp-Trp-Asp-D-γMeLeu-Leu-D-Trp-]],"ring closure, yield of all isomers","from CC(C)C[C@H](NC(=O)[C@@H](CC(C)(C)C)NC(=O)OC(C)(C)C)C(=O)N[C@H](Cc1c[nH]c2ccccc12)C(=O)N[C@H](CC(=O)OCc1ccccc1)C(=O)N[C@@H](Cc1c[nH]c2ccccc12)C(=O)N[C@@H](CC(=O)OCc1ccccc1)C(=O)O, HONB/DCC (active ester), then TEA, DMF, 4.97 mM, 16.0 h, 4 steps",51.5%
CC(C)C[C@@H]1NC(=O)[C@@H](CC(C)C)NC(=O)[C@H](CC(=O)O)NC(=O)[C@H](C)NC(=O)[C@@H](CC(=O)O)NC(=O)[C@@H](Cc2c[nH]c3ccccc23)NC1=O [cyclo[-D-Asp-Ala-Asp-D-Leu-Leu-D-Trp-]],"ring closure, yield of all isomers","from CC(C)C[C@H](NC(=O)[C@@H](CC(C)C)NC(=O)[C@H](CC(=O)OCc1ccccc1)NC(=O)[C@H](C)NC(=O)[C@@H](CC(=O)OCc1ccccc1)NC(=O)[C@@H](Cc1c[nH]c2ccccc12)NC(=O)OC(C)(C)C)C(=O)O, HONB/DCC (active ester), TEA, DMF, 5.0 mM, 4 steps",18.2%
CC(C)C[C@@H]1NC(=O)C2(CCC2)NC(=O)[C@H](CC(=O)O)NC(=O)[C@H](Cc2c[nH]c3ccccc23)NC(=O)[C@@H](CC(=O)O)NC(=O)[C@@H](Cc2c[nH]c3ccccc23)NC1=O [cyclo[-D-Asp-Trp-Asp-Acbu-Leu-D-Trp-]],"ring closure, yield of all isomers","from CC(C)C[C@H](NC(=O)C1(NC(=O)OC(C)(C)C)CCC1)C(=O)N[C@H](Cc1c[nH]c2ccccc12)C(=O)N[C@H](CC(=O)OCc1ccccc1)C(=O)N[C@@H](Cc1c[nH]c2ccccc12)C(=O)N[C@@H](CC(=O)OCc1ccccc1)C(=O)O, HONB/DCC (active ester), TEA, DMF, 4.95 mM, 4 steps",10.4%
CC(C)C[C@@H]1NC(=O)[C@@H](c2cccs2)NC(=O)[C@H](CC(=O)O)NC(=O)[C@H](CC(=O)NCCc2c[nH]c3ccccc23)NC(=O)[C@@H](CC(=O)O)NC(=O)[C@@H](Cc2c[nH]c3ccccc23)NC1=O [cyclo[-D-Asp-Asn(CH2 CH2 -Ind)-Asp-D-Thg(2)-Leu-D-Trp-]],"ring closure, yield of all isomers","from CC(C)C[C@H](NC(=O)[C@H](NC(=O)OC(C)(C)C)c1cccs1)C(=O)N[C@H](Cc1c[nH]c2ccccc12)C(=O)N[C@H](CC(=O)OCc1ccccc1)C(=O)N[C@@H](CC(=O)NCCc1c[nH]c2ccccc12)C(=O)N[C@@H](CC(=O)OCc1ccccc1)C(=O)O, 4 steps",9.5%
